Source: patent publication US20190350898A1, “METHODS AND COMPOSITIONS FOR TREATMENT OF ALZHEIMER'S DISEASE” (Neurotrope Bioscience, Inc., priority 2018, published 2019)
Entries after “also recorded” stand apart in the source; their conditions may differ.

Tests used:
[1] = test system: patients with advanced Alzheimer's disease; test: Safety and tolerability, treatment emergent adverse events (TEAEs), same trial; assay type: in vivo, human; details: 40 μg group
Description: In a double-blind, randomized, placebo-controlled trial, bryostatin was administered by intravenous infusion (˜45 minutes) to patients with advanced Alzheimer's disease for 12 weeks at doses of 20 or 40 μg. Randomization was stratified at baseline by severe (MMSE-2, 4-9) and moderate (MMSE-2, 10-15) dementia, wherein MMSE-2 refers to Mini-Mental State Examination, version 2. The MMSE or Folstein test is a 30-point questionnaire that is used extensively in clinical and research settings to measure cognitive impairment. Low scores indicate greater impairment. […]
Adults aged 55-85 with cognitive deficits present for at least 2 years, MMSE-2 of 4-15, inclusive, and a diagnosis of Alzheimer's dementia were randomly assigned to receive blinded intravenous infusions of bryostatin 24 μg or matching placebo at weeks 0 and 1. […] In one arm, the two 24 μg doses were followed by 20 μg doses at weeks 5, 7, 9 and 11 with the Severe Impairment Battery (SIB) measured at baseline and weeks 5, 9, 13, and 15. In a second arm, the two 48 μg doses at weeks 0 and 1 were followed by 40 μg doses at weeks 5, 7, 9, and 11 with the SIB measured at baseline and weeks 5, 9, 13, and 15. […] The first primary endpoint was safety and tolerability, assessed by treatment emergent adverse events (TEAEs) with a sample size of 150 subjects randomized 1:1:1. […]

[2] = test system: patients with advanced Alzheimer's disease; test: Severe Impairment Battery (SIB) change from baseline, double-blind randomized placebo-controlled trial; assay type: in vivo, human; details: for Mean slope of SIB over time, Unweight Slope / Mean slope of SIB over time, Weighted Slope: 20 μg Bryostatin; for Mean slope of SIB over time, Unweight Slope: baseline to week 15; for Mean slope of SIB over time, Weighted Slope: weighted by number of non-zero SIB scores; for SIB Total change from baseline, LS Mean (SE) / SIB Total, Difference vs. Placebo / SIB Total change from baseline, LS Mean: Bryostatin 20 μg
Description: In a double-blind, randomized, placebo-controlled trial, bryostatin was administered by intravenous infusion (˜45 minutes) to patients with advanced Alzheimer's disease for 12 weeks at doses of 20 or 40 μg. Randomization was stratified at baseline by severe (MMSE-2, 4-9) and moderate (MMSE-2, 10-15) dementia, wherein MMSE-2 refers to Mini-Mental State Examination, version 2. The MMSE or Folstein test is a 30-point questionnaire that is used extensively in clinical and research settings to measure cognitive impairment. Low scores indicate greater impairment. Version 2 of the MMSE was published in 2010, expanding the original questionnaire's usefulness in populations with milder forms of cognitive impairment. […] Importantly, this cognitive improvement persisted and increased 30 days after all bryostatin dosing had been completed.
Adults aged 55-85 with cognitive deficits present for at least 2 years, MMSE-2 of 4-15, inclusive, and a diagnosis of Alzheimer's dementia were randomly assigned to receive blinded intravenous infusions of bryostatin 24 μg or matching placebo at weeks 0 and 1. The 24 μg and 48 μg doses during the first two weeks of the 20 and 40 μg protocols respectively were considered to be “loading” doses thought to be beneficial from prior experience with Compassionate Use trial patients. Nelson et al., Alzheimers Dis. 2017 58: 521-535. In one arm, the two 24 μg doses were followed by 20 μg doses at weeks 5, 7, 9 and 11 with the Severe Impairment Battery (SIB) measured at baseline and weeks 5, 9, 13, and 15. In a second arm, the two 48 μg doses at weeks 0 and 1 were followed by 40 μg doses at weeks 5, 7, 9, and 11 with the SIB measured at baseline and weeks 5, 9, 13, and 15. The subjects were stratified by MMSE-2 in two strata: Stratum 1 (4-9) and Stratum 2 (10-15). The first primary endpoint was safety and tolerability, assessed by treatment emergent adverse events (TEAEs) with a sample size of 150 subjects randomized 1:1:1. Although efficacy was the secondary measure, the primary efficacy endpoint was SIB improvement at week 13 evaluated using a mixed model for repeated measures. A secondary efficacy endpoint was ADCS-ADL Sev. The primary safety population included all subjects who received at least 1 dose of study drug, and efficacy was evaluated in a modified intent to treat (mITT) population that received at least 1 dose of study drug and had at least one treatment evaluation. Efficacy was evaluated both as a primary end-point in the modified intent-to-treat (mITT) population and also as a primary end point in a Completers population that included all patients that completed the entire protocols as described above.
The SIB efficacy measurement at 30 days (week 15) post dosing—after all dosing had been completed (last dose administered at week 11)—was a pre-specified exploratory endpoint. Week 15 results were only included for subjects who were not re-randomized. The mixed model assumes missing at random, but order of enrollment in the trial was not random. Since order of enrollment was not random, the assumption of missing at random is not met. For this reason, only including week 15 for those who were not re-randomized is an appropriate way to estimate week 15 results, but not an appropriate way to estimate results at the earlier visits. For this reason, estimates up through week 13 are from a mixed model that only included data through week 13 and the week 15 estimates are from a separate model. Results were generated using a mixed model with repeated measures predicting change from baseline in SIB Total Score as the response variable and using baseline score, baseline MMSE strata, treatment, visit (categorical), and visit (treatment) as predictors. […]

[3] = Week 5, Completer, With Memantine
[4] = Week 5, Completer, Without Memantine
[5] = Week 9, Completer, With Memantine
[6] = Week 9, Completer, Without Memantine
[7] = Week 13, Completer, With Memantine
[8] = Week 13, Completer, Without Memantine
[9] = Week 13, FAS (mITT), With Memantine

CCC/C=C/C=C/C(=O)O[C@H]1/C(=C/C(=O)OC)C[C@H]2C[C@H]([C@@H](C)O)OC(=O)C[C@H](O)C[C@@H]3C[C@H](OC(C)=O)C(C)(C)[C@](O)(C[C@@H]4C/C(=C/C(=O)OC)C[C@H](/C=C/C(C)(C)[C@]1(O)O2)O4)O3 [Bryostatin, bryostatin-1]
Safety results (adverse events) [1]: more adverse events | Mean slope of SIB over time, Unweight Slope ([2]; first column group (strata head not given, probably memantine naïve)): 0.382 | Mean slope of SIB over time, Unweight Slope ([2]; second column group (strata head not given, probably memantine exposed)): −0.143 | Mean slope of SIB over time, Weighted Slope ([2]; first column group (probably memantine naïve)): 0.363 | Mean slope of SIB over time, Weighted Slope ([2]; second column group (probably memantine exposed)): −0.099 | SIB improvement at week 5 compared to placebo and baseline ([2]; 20 μg arm, week 5, after 3 doses): significant improvement | SIB improvement compared to placebo ([2]; 20 μg dose, patients on memantine background therapy): no SIB improvement; also recorded: did not occur | SIB improvement versus baseline and placebo ([2]; 20 μg dose, throughout the 13-week trial): sustained improvements in SIB scores; also recorded: sustained efficacy; also recorded: sustained improvement in SIB | SIB improvement versus baseline and placebo ([2]; 40 μg dose): lack of efficacy; also recorded: no SIB improvement | SIB Total change from baseline, LS Mean (SE) ([2]; Week 5, Completer, MMRM): 1.67 (0.964) | SIB Total, Difference vs. Placebo ([2]; Week 5, Completer, MMRM): 4.00 | SIB Total change from baseline, LS Mean [2, 3]: 0.61 | SIB Total, Difference vs. Placebo [2, 3]: 2.94 | SIB Total change from baseline, LS Mean [2, 4]: 3.22 | SIB Total, Difference vs. Placebo [2, 4]: 5.38 | SIB Total change from baseline, LS Mean (SE) ([2]; Week 5, FAS, MMRM): 1.18 (1.102) | SIB Total, Difference vs. Placebo ([2]; Week 5, FAS, MMRM): 2.96 | SIB Total change from baseline, LS Mean ([2]; Week 5, FAS, With Memantine): 0.26 | SIB Total, Difference vs. Placebo ([2]; Week 5, FAS, With Memantine): 1.96 | SIB Total change from baseline, LS Mean ([2]; Week 5, FAS, Without Memantine): 2.74 | SIB Total, Difference vs. Placebo ([2]; Week 5, FAS, Without Memantine): 4.48 | SIB Total change from baseline, LS Mean (SE) ([2]; Week 9, Completer, MMRM): 1.28 (1.119) | SIB Total, Difference vs. Placebo ([2]; Week 9, Completer, MMRM): 1.85 | SIB Total change from baseline, LS Mean [2, 5]: −0.16 | SIB Total, Difference vs. Placebo [2, 5]: 0.90 | SIB Total change from baseline, LS Mean [2, 6]: 3.34 | SIB Total, Difference vs. Placebo [2, 6]: 2.66 | SIB Total change from baseline, LS Mean (SE) ([2]; Week 9, FAS, MMRM): 0.94 (1.149) | SIB Total, Difference vs. Placebo ([2]; Week 9, FAS, MMRM): 1.03 | SIB Total change from baseline, LS Mean ([2]; Week 9, FAS, With Memantine): −0.33 | SIB Total, Difference vs. Placebo ([2]; Week 9, FAS, With Memantine): 0.09 | SIB Total change from baseline, LS Mean ([2]; Week 9, FAS, Without Memantine): 2.95 | SIB Total, Difference vs. Placebo ([2]; Week 9, FAS, Without Memantine): 2.08 | SIB Total change from baseline, LS Mean (SE) ([2]; Week 13, Completer, MMRM): 1.51 (1.118) | SIB Total, Difference vs. Placebo ([2]; Week 13, Completer, MMRM): 2.63 | SIB Total, Difference vs. Placebo ([2]; Week 13, Completer, MMRM, listed as bryostatin): 2.6 | SIB Total change from baseline, LS Mean [2, 7]: −0.39 | SIB Total, Difference vs. Placebo [2, 7]: 0.56 | SIB Total change from baseline, LS Mean [2, 8]: 4.22 | SIB Total, Difference vs. Placebo [2, 8]: 5.53 | SIB Total change from baseline, LS Mean [2, 9]: −0.60 | SIB Total, Difference vs. Placebo [2, 9]: −0.14
